Patent US20220041641A1, “QUATERNARY AMMONIUM SALTS AS INHIBITORS OF TRIMETHYLAMINE PRODUCTION” (Senda Biosciences, Inc., priority 2018, published 2022)

How the values were obtained:
[1] = biological target: CutC from Proteus mirabilis (Proteus mirabilis, UniProt B4EYG1); assay: Cell-based assay for TMA production from a native producer (P. mirabilis); conditions: d9-TMA from 1 mM d9-choline, 5 h, 37° C.; value 10 given when no fit or % TMA remaining at 10 μM higher than 15%; read-out: Average IC50 Whole cell P. mirabilis
CutC from Proteus mirabilis, sequence (B4EYG1 entry or part of it): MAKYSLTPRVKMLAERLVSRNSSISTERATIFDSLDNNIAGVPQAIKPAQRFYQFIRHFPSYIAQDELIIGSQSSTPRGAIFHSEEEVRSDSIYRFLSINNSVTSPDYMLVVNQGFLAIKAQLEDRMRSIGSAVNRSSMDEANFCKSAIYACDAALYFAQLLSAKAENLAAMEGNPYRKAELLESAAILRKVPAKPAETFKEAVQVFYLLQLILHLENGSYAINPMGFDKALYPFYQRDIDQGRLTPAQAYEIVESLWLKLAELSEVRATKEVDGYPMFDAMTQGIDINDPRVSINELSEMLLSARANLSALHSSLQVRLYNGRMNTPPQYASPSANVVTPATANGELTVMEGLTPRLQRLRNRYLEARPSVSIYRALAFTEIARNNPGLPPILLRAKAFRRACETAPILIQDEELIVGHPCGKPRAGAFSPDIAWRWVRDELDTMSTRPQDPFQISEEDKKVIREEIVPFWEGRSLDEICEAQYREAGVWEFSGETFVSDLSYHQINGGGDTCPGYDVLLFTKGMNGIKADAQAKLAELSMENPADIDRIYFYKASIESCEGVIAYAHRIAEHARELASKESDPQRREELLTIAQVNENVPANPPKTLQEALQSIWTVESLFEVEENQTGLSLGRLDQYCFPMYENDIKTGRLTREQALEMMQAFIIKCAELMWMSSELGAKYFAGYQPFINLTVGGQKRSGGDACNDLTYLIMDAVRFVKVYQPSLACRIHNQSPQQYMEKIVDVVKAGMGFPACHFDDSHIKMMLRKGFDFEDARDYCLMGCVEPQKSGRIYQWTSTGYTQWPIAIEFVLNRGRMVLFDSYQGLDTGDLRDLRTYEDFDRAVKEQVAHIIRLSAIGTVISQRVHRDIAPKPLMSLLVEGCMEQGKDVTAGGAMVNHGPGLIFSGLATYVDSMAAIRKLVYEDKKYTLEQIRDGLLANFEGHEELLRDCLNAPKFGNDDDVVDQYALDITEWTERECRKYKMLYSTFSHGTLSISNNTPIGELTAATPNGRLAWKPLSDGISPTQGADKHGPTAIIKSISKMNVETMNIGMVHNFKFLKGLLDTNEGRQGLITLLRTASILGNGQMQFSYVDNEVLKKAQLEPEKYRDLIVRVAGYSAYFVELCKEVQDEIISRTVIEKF
CutC from Proteus mirabilis, sequence (B4EYG0 entry or part of it, further chain): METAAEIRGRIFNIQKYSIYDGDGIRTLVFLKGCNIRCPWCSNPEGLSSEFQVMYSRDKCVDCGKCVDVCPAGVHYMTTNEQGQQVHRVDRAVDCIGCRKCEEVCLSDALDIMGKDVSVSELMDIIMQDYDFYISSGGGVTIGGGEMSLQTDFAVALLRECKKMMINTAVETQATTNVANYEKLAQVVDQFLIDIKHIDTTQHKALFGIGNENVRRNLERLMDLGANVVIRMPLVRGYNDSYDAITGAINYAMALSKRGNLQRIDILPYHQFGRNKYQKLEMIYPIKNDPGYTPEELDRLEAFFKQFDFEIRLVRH
Outline: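 Overnight anaerobic cultures of P. mirabilis or C. sporogenes, grown in BHI with 1 mM choline, were diluted and given 1 mM (trimethyl-d9)-choline plus compound at 10 μM final. After 5 h at 37° C., d9-TMA was quantified by LCMS.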

[2] = test system: enzymatic activity in fecal matter; assay: Inhibition of enzymatic activity in fecal matter; format: cell-based; conditions: d9-choline 1 mM, 16 hours at 37° C., anaerobic, d9-TMA by LCMS
Experimental: Inhibition of enzymatic activity in fecal matter was determined by adding a substrate (d9-choline, 1 mM final concentration) and a compound in a range of concentrations in order to determine an IC50. After incubation for a designated 16 hours at 37° C. in anaerobic conditions, samples were be prepared for LCMS analysis, and the amount of d9-TMA produced was determined using LCMS analysis as in the Examples above.

in vivo = assay: in vivo; parameters: species or system Sprague-Dawley rats; conditions: Sprague-Dawley, rat
Experimental: Sprague-Dawley rats (three rats per compound) were treated with a single intravenous (IV) 1 mg/kg dose or orally (PO) a single 10 mg/kg dose. Plasma concentrations of the conjugates were determined by LCMS at 5 minutes, 15 minutes, 30 minutes, 1 hour, 2 hours, 4 hours, 8 and 24 hours post compound administration. […] In addition, the plasma exposure and bioavailability of the active agent of was lower when dosed as a conjugate instead of the active agent alone.

[3] = Pharmacokinetic study of colon contents and plasma after oral dose of conjugate; format: in vivo, male C57B3L/6 mice; conditions: male, C57B3L/6, mouse, in vivo, po
Experimental: To confirm that the active agent component of the conjugate is released in the gastrointestinal tract, a pharmacokinetic study was conducted in male C57B3L/6 mice examining conjugate and active agent of concentrations in both the colon contents and plasma after oral dose of conjugate. Conjugate and active agent of were quantified by LCMS at 0 (pre-dose), 0.25, 0.5, 1, 2, 4, 6, 8, 12, and 24 hours post-dose of compound.

[4] = Caco-2 permeability assay; format: in vitro ADME; conditions: human, Caco-2, pH 7.4
Experimental: Preparation of Caco-2 Cells: 50 μL and 25 mL of cell culture medium were added to each well of the Transwell insert and reservoir, respectively. The HTS transwell plates were incubated at 37° C., 5% CO2 for 1 hour before cell seeding. […] Cell culture medium was replaced every other day, beginning no later than 24 hours after initial plating.
Assessment of Cell Monolayer Integrity: Medium was removed from the reservoir and each Transwell insert and replaced with prewarmed fresh culture medium. Transepithelial electrical resistance (TEER) across the monolayer was measured using Millicell Epithelial Volt-Ohm measuring system (Millipore, USA). The Plate was returned to the incubator once the measurement was done. The TEER value was calculated according to the following equation: […]
Preparation of Solutions: 2 mM stock solutions in DMSO of control compounds were prepared and diluted with HBSS (10 mM HEPES, pH 7.4) to get 10 μM working solution. 0.2 mM stock solutions of test compounds in DMSO were prepared and diluted with HBSS (10 mM HEPES, pH 7.4 with 0.5% BSA) to get 1 μM working solution. Metoprolol, erythromycin and cimetidine were used as control compounds.
The Caco-2 plate was removed from the incubator. The monolayer was washed twice with pre-warmed HBSS (10 mM HEPES, pH 7.4). The plate was incubated at 37° C. for 30 minutes. To determine the rate of drug transport in the apical to basolateral direction, 125 μL of the working solution was added to the Transwell insert (apical compartment). A 50 μL sample was transferred immediately from the apical compartment to 200 μL of acetonitrile containing IS (100 nM alprazolam, 200 nM Caffeine and 100 nM tolbutamide) in a new 96-well plate as the initial donor sample (A-B) and it was vortexed at 1000 rpm for 10 minutes. The wells in the receiver plate (basolateral compartment) were filled with 235 μL of transport buffer. To determine the rate of drug transport in the basolateral to apical direction, 285 μL of the working solution were added to the receiver plate wells (basolateral compartment). A 50 μL sample was transferred immediately from the basolateral compartment to 200 μL of acetonitrile containing IS (100 nM alprazolam, 200 nM Caffeine and 100 nM tolbutamide) in a new 96-well plate as the initial donor sample (B-A) and it was vortexed at 1000 rpm for 10 minutes. The Transwell insert (apical compartment) was filled with 75 μL of transport buffer. The apical to basolateral direction and the basolateral to apical direction need to be done at the same time. The plates were incubated at 37° C. for 2 hours. At the end of the incubation, 50 μL samples from donor sides (apical compartment for Ap→Bl flux, and basolateral compartment for B1→Ap) and receiver sides (basolateral compartment for Ap→Bl flux, and apical compartment for B1→Ap) were transferred to wells of a new 96-well plate, followed by the addition of 4 volume of acetonitrile containing IS (100 nM alprazolam, 200 nM Caffeine and 100 nM tolbutamide). Samples were vortexed for 10 minutes, 50 μL samples were transferred to wells of a new 96-well plate, followed by the addition of 50 μL Hepes and 200 μL IS. All samples were vortexed for 10 minutes, and then centrifuged at 3,220 g for 40 minutes. An aliquot of 150 μL of the supernatant was mixed with an appropriate volume of ultra-pure water before LC-MS/MS analysis.
Apparent permeability (Papp) can be calculated for drug transport assays using the following equation: […]
Papp is apparent permeability (cm/s×10^−6);
Papp (B-A) indicates the apparent permeability coefficient in basolateral to apical direction, and
Papp (A-B) indicates the apparent permeability coefficient in apical to basolateral direction.

SMILES	IC50 [1]	IC50 [2]	Cmax (in vivo; iv, 1 mg/kg)	Cmax [3]	% F (in vivo; po, 10 mg/kg)	Cmax (in vivo; po, 10 mg/kg)	bioavailability (in vivo; po, 10 mg/kg)	Papp A→B at 2 h, 1 µM [4]	Papp B→A at 2 h, 1 µM [4]
CC(=O)OC[C@@H]1O[C@H](OCC[N+](C)(C)CCl)[C@@H](OC(C)=O)[C@H](OC(C)=O)[C@H]1OC(C)=O (stereo in doubt) [Compound 78, N-(chloromethyl)-N,N-dimethyl-2-(((2S,3S,4R,5S,6S)-3,4,5-triacetoxy-6-(acetoxymethyl)tetrahydro-2H-pyran-2-yl)oxy)ethan-1-aminium Iodide]	≥ 10000 nM	390 nM	6 nM						
CC(=O)OCC1OC(OCC[N+](C)(C)CF)C(OC(C)=O)C(OC(C)=O)C1OC(C)=O.[I-] (stereo in doubt) [Compound 79, N-(fluoromethyl)-N,N-dimethyl-2-(((2S,3S,4R,5S,6S)-3,4,5-triacetoxy-6-(acetoxymethyl)tetrahydro-2H-pyran-2-yl)oxy)ethan-1-aminium Iodide]			13600 nM	5 nM	1.60%	260 nM	2.16%	0.214 ×10⁻⁶ cm/s	0.255 ×10⁻⁶ cm/s
CC(=O)OC[C@@H]1O[C@H](OCC[N+](C)(C)CF)[C@@H](OC(C)=O)[C@H](OC(C)=O)[C@H]1OC(C)=O (stereo in doubt) [Compound 79, N-(fluoromethyl)-N,N-dimethyl-2-(((2S,3S,4R,5S,6S)-3,4,5-triacetoxy-6-(acetoxymethyl)tetrahydro-2H-pyran-2-yl)oxy)ethan-1-aminium Iodide]	≥ 10000 nM	1170 nM	1 nM			50 nM			
